Laboratory results: EP0152574A1, “6-Ethoxy-4-methyl-benzothiazol-2(3H)-one, processes for its preparation and medicaments containing this compound” (priority 1983, dated 1985)

Assays:
in vivo = details: rat, oral, 14 days observation, limits in brackets
Procedure: 3.) Die Bestimmung der akuten Toxizität erfolgte an Ratten beider Geschlechter mit einem Gewicht zwischen 120 und 150 g. Die Prüfsubstanzen wurden als Verreibung in l%iger Methylzellulose (2,0 ml/100 g Tier) per Schlundsonde appliziert. Die Berechnung der LD50 erfolgte nach […] u.

Hefefieber der Ratte = experiment: Antipyretic action against yeast-induced fever; format: in vivo; set-up: unit not given here; details: rat, oral, 2 h after dosing; dose lowering yeast fever by 1°C; limits in brackets
Procedure: 2. Die Prüfung der antipyretischen Wirkung erfolgte gegen das durch subcutane Gabe von 100 mg Hefe/100 g Tier ausgelöste Fieber an 120-150 g schweren männlichen Ratten. Die Prüfsubstanzen wurden 4 Stunden nach Hefegabe als Verreibung in l%iger Methylzellulose (1,0 ml/100 g) per Schlundsonde verabfolgt. Aus der 2 Stunden danach gefundenen Veränderung der Rektaltemperatur gegenüber der der Kontrolltiere wurde nach linearer Regressionsanalyse eine ED-1,0°C als jene Dosis berechnet, die das Hefefieber um 1°C senkte.

[1] = tested on: Entzündungsschmerz der Ratte; experiment: Inflammatory pain test according to RANDALL and SELITTO (yeast-inflamed paw, pain threshold); format: in vivo; details: 1.5 h; rat, oral, 90 min after dosing; dose raising pain threshold by 50 %; confidence limits in brackets
Procedure: l.) Die Prüfung der Wirkung gegen den Entzündungsschmerz der Ratte erfolgte mit der Methode nach RANDALL u. SELITTO (Arch. int. Pharmacodyn. 111, 409 (1957)). Die Prüfsubstanzen wurden männlichen Ratten mit einem Gewicht zwischen 100 und 130 g als Verreibung in 1%iger Methylzellulose (1,0 ml/100 g Tier) 90 Minuten nach der subplantaren Hefegabe per Schlundsonde verabfolgt. Aus der 90 Minuten nach Gabe der verschiedenen Dosen der Prüfsubstanz gemessenen Schmerzschwelle wurde nach linearer Regressionsanalyse eine ED50 als jene Dosis ermittelt, die eine Anhebung der Schmerzschwelle um 50 % bewirkt.

[2] = tested on: Glutathiongehalt der Mäuseleber; experiment: Effect on liver glutathione content (ELLMAN method); format: in vivo, Maus
Procedure: 4.) Der Einfluß auf den Glutathion-Gehalt der Leber wurde an männlichen Mäusen mit einem Gewicht zwischen 25 und 30 g untersucht. 2 Stunden nach oraler Gabe der Prüfsubstanz (als Verreibung in l%iger Methylzellulose, 0,2 ml/10 g Tier) wurde die Leber entnommen.
Für die prognostische Beurteilung einer Hepatotoxizität ist die Erschöpfung der Glutathionvorräte in der Leber ein geeigneter Indikator.

Row | Compound | LD50 at 336 h (in vivo) | ED-1,0 °C (Hefefieber der Ratte) | ED50 [1] | Verminderung des Leberzellglutathion ([2]; in vivo, po, 1000 mg/kg) | red. GSH x̄ ([2]; in vivo, po, 1000 mg/kg) | Δ gegen Kontrollen ([2]; in vivo, po, 1000 mg/kg) | red. GSH x̄ ([2]; mouse liver, 2 h after oral 1000 mg/kg) | Verminderung des Leberzellglutathion ([2]; single oral dose 1000 mg/kg, mouse, critical range = depletion by more than 50 %) | Δ gegen Kontrollen ([2]; in vivo, po, 160 mg/kg) | Δ gegen Kontrollen ([2]; in vivo, po, 200 mg/kg) | Δ gegen Kontrollen ([2]; in vivo, po, 250 mg/kg) | Δ gegen Kontrollen ([2]; in vivo, po, 315 mg/kg)
1 | CCOc1cc(C)c2[nH]c(=O)sc2c1 [Substanz A, 6-Ethoxy-4-methyl-benzothiazol-2(3H)-on] | > 4000 mg/kg | 31,2 (25,1-36,5) | 24.1 mg/kg | deutlich schwächer und unterhalb des kritischen Bereiches | 5,02 | - 36,0% | – | – | – | – | – | –
2 | COc1cc(C)c2[nH]c(=O)sc2c1 [Substanz B, 6-Methoxy-4-methyl-benzothiazol-2(3H)-on] | 7580 mg/kg | 29,6 (25,0-34,0) | 23 mg/kg | > 50% | 3,42 | - 56,4% | – | – | – | – | – | –
3 | Cc1cc(C)c2[nH]c(=O)sc2c1 [Substanz C, 4,6-Dimethyl-benzothiazol-2(3H)-on] | – | 18,1 (11,3-23,7) | 49.7 mg/kg | – | – | – | 2,90 mMol/g | > 50% | – | – | – | –
4 | CC(=O)Nc1ccc(O)cc1 [Substanz D, p-Hydroxy-acetanilid] | 3960 mg/kg | 123 (84,0-155) | 215 mg/kg | – | – | – | – | – | - 32,7% | - 51,3% | - 65,7% | - 82,4%
